Test results published in US10851097B2, “4,5,6,7-tetrahydro-1H-imidazo[4,5-c]pyridine and 1,4,5,6,7,8-hexahydroimidazo[4,5-d]azepine derivatives as janus kinase inhibitors” (Topivert Pharma Limited, priority 2015, dated 2020).
Converted amounts (≈) assume the structure as drawn. Like-named read-outs stand apart in the source and are kept apart here.

Columns and labels:
[1] = target: T1, JAK1 (Homo sapiens, UniProt P23458); test: KINOMEscan enzyme binding assay (DiscoveRx), JAK1; settings: read-out: Dissociation Constant JAK1
T1 construct: purchased DiscoveRx (LeadHunter Discover Services, KINOMEscan)
T1 sequence (P23458 866-1154 limits assumed): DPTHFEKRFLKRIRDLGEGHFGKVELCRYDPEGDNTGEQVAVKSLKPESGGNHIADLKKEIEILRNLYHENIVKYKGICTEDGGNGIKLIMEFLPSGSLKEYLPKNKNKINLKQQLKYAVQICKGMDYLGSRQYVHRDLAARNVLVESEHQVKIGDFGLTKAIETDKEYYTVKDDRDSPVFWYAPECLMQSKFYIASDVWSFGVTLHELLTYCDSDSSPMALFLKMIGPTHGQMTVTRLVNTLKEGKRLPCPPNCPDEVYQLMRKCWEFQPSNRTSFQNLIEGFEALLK
Description: (§1) These assays may be conducted by DiscoveRx (formerly Ambit; San Diego, Calif.). The percentage inhibition produced by incubation with a test compound may be calculated relative to the non-inhibited control.

[2] = target: T2, JAK2 (Homo sapiens, UniProt O60674); test: KINOMEscan enzyme binding assay (DiscoveRx), JAK2; settings: read-out: Dissociation Constant JAK2
T2 construct: purchased DiscoveRx (LeadHunter Discover Services, KINOMEscan)
T2 sequence (O60674 840-1132 limits assumed): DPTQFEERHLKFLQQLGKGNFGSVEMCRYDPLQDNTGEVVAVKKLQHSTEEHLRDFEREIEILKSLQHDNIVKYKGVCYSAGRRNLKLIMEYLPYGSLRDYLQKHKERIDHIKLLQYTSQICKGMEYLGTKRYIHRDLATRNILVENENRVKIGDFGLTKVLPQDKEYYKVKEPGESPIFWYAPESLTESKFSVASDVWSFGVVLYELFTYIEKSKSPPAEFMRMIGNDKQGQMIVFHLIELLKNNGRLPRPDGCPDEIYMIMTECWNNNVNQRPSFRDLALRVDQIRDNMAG
Description: as §1

[3] = target: T3, JAK3 (Homo sapiens, UniProt P52333); test: KINOMEscan enzyme binding assay (DiscoveRx), JAK3; settings: read-out: Dissociation Constant JAK3
T3 construct: purchased DiscoveRx (LeadHunter Discover Services, KINOMEscan)
T3 sequence (P52333 813-1124 limits assumed): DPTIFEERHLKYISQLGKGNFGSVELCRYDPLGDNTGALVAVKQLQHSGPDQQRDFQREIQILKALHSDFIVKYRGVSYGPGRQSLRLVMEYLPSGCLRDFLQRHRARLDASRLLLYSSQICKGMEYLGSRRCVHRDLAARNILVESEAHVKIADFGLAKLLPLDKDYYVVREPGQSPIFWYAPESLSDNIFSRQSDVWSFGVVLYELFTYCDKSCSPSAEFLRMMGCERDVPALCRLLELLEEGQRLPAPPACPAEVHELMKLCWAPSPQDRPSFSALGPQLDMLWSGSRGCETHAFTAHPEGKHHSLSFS
Description: as §1

[4] = target: T4, TYK2 (Homo sapiens, UniProt P29597); test: KINOMEscan enzyme binding assay (DiscoveRx), TYK2; settings: read-out: Dissociation Constant TYK2
T4 construct: purchased DiscoveRx (LeadHunter Discover Services, KINOMEscan)
T4 sequence (P29597 888-1187 limits assumed): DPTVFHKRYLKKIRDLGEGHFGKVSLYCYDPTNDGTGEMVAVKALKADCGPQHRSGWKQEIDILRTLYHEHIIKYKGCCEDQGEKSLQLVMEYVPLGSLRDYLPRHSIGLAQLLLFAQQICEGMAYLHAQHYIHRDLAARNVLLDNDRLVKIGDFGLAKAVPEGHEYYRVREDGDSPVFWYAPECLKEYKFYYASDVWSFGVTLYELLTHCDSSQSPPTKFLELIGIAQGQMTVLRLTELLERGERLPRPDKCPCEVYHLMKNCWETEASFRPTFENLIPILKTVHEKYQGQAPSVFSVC
Description: as §1

[5] = system: CD3/IL2 stimulated PBMC cells; test: IFNγ release from CD3/IL2 stimulated PBMC cells (assay (a)); assay type: cell-based; settings: Homo sapiens, CD3/IL2 stimulation, 48 h, ELISA
Description: (a) IFNγ Release from CD3/IL2 Stimulated PBMC Cells
PBMCs from healthy subjects are separated from whole blood using a density gradient (Lymphoprep, Axis-Shield Healthcare). Cells are added to a 96 well plate, and compound at the desired concentration added 2 hours prior to stimulation with a mixture of monoclonal antibody to CD3 (1 μg/ml, eBioscience) and human recombinant IL2 (10 ng/ml, Peprotech). After 48 hours incubation under normal tissue culture conditions, supernatants are collected and IFNγ release determined by Sandwich ELISA (Duo-set, R&D System). The IC50 is determined from the dose response curve.

[6] = Solubility in fasted-state simulated colonic fluid (FaSSCoF) at pH 6.5; assay type: physicochemical; settings: 25 °C, pH 6.5, fassgf or other biorelevant, thermodynamic from solid, pH 6.5, 25° C., Run 1, read-out: pH 6.5 FaSSCoF Solubility Run 1
Description: The solubilities of compounds of the invention in FaSSCoF at pH 6.5 are determined using a modification of a previously-reported procedure (Vertzoni, M., et al. Pharm. Res. 2010, 27, 2187-2196). In place of the bile salt extract employed in the original procedure (which extract is no longer available), the modified procedure uses a mixture of sodium taurochlorate (0.15 g), glycocholic acid (0.15 g), ursodeoxycholic acid (0.05 g), cholic acid (0.05 g), and glycodeoxycholic acid (0.05 g). These five bile acids are ground together with a mortar and pestle to produce a fine white powder that is incorporated into the FaSSCoF, as outlined below.
Tris(hydroxymethyl)aminomethane (Tris; 0.275 g) and maleic acid (0.44 g) are dissolved in water (35 mL) to give a solution whose pH is adjusted to 6.5 by treatment with 0.5M NaOH (ca. 12 mL). The solution is then made up to 50 mL with water. A portion of this Tris/maleate buffer solution (ca. 25 mL) is added to a 0.5 L round-bottomed flask, before being treated with 0.00565 g of the bile acid mixture described above. Solutions of phosphatidylcholine (0.0111 g) in DCM (0.15 mL) and palmitic acid (0.0013 g) in DCM (0.15 mL) are added, then the organic solvent is evaporated off under reduced pressure at 40° C. until a clear solution, with no perceptible DCM odour, is achieved. The volume of the evaporated solution is adjusted to 50 mL by addition of the remainder of Tris/maleate buffer, then BSA (0.115 g) is added, before being dissolved by gentle agitation.
Test compounds are suspended in the pH 6.5 FaSSCoF medium to give a maximum final concentration of 2-10 mg/mL. The suspensions are equilibrated at 25° C. for 24 h, before being filtered through a glass fibre C filter. The filtrates are then diluted as appropriate for injection and quantification by HPLC with reference to a standard. Different volumes of the standard, diluted and undiluted sample solutions are injected and the solubilities are calculated using the peak areas determined by integration of the peak found at the same retention time as the principal peak in the standard injection.

[7] = Systemic pharmacokinetics and total colon tissue distribution after single oral administration in mice; assay type: in vivo, male C57BL/6 mice; settings: for Kp: total colon tissue / plasma, po, 10 mg/kg
Description: Studies were conducted by Sai Life Sciences (Hinjewadi, Pune, India) to investigate the systemic pharmacokinetics and total colon tissue distribution of compounds of the invention following a single oral administration in male C57BL/6 mice.
A group of twenty four male mice were administered with a solution of test compound formulated at a dose of 10 mg/10 mL/kg in aqueous hydroxypropyl-β-cyclodextrin (20% w/v in water). Blood samples (approximately 60 μL) were collected from retro-orbital plexus of each mouse under light isoflurane anaesthesia such that the samples were obtained at 0.5, 1, 2, 4, 6, 8, 12 and 24 hr. The blood samples were collected from a set of three mice at each time point in a labeled micro centrifuge tube containing K2EDTA as anticoagulant. Plasma samples were separated by centrifugation at 4000 rpm for 10 min and stored below −70° C. until bioanalysis. After collection of blood sample, animals were humanely euthanized by carbon dioxide asphyxiation to collect total colon tissues. The colons were flushed with cold PBS (pH7.4) to remove contents. The total colon tissues were homogenized with cold PBS (pH7.4) of twice the weight of colon tissue and stored below −70° C. Total volume was three times the total colon tissue weights. All samples were processed for analysis by protein precipitation using acetonitrile and analyzed with a fit-for-purpose LC-MS/MS method. Pharmacokinetic parameters were calculated using the non-compartmental analysis tool of Phoenix WinNonlin® (Version 6.3).

[8] = male, C57BL/6, mouse, oral 10 mg/kg, plasma, read-out: Mean plasma concentration
[9] = male, C57BL/6, mouse, total colon tissue, oral 10 mg/kg, total colon, read-out: Total colon level

CCc1cc(O)c(F)cc1-c1ccc2c(-c3nc4c([nH]3)CCN(C(=O)c3cnc(N(C)CCN5CCCC5=O)cn3)C4)n[nH]c2c1 [Example 2(k), 1-(2-((5-(2-(6-(2-ethyl-5-fluoro-4-hydroxyphenyl)-1H-indazol-3-yl)-4,5,6,7-tetrahydro-1H-imidazo[4,5-c]pyridine-5-carbonyl)pyrazin-2-yl)(methyl)amino)ethyl)pyrrolidin-2-one]
Kd [1]: 1 nM
Kd [2]: 0.047 nM
Kd [3]: 0.092 nM
Kd [4]: 0.13 nM
IC50 [5]: 9.9 nM
solubility thermodynamic at 24 h [6]: 0.01 mg/mL (≈ 16 µM)
concentration at 0.5 h [7, 8]: 2.4 ng/mL
concentration at 1 h [7, 8]: 2.6 ng/mL
concentration at 2 h [7, 8]: 1.9 ng/mL
concentration at 4 h [7, 8]: 1.1 ng/mL
concentration at 6 h [7, 8]: 3.4 ng/mL
concentration at 8 h [7, 8]: 4.8 ng/mL
concentration at 12 h [7, 8]: 1.2 ng/mL
concentration at 24 h [7, 8]: 0 µg/mL
AUC(0-t) ([7]; male, C57BL/6, mouse, oral 10 mg/kg, plasma, read-out: AUC0-24 h P (plasma)): 0.02 µg·h/mL
Cmax ([7]; male, C57BL/6, mouse, oral 10 mg/kg, plasma, read-out: Cmax P (plasma)): 4.8 ng/mL
Kp ([7]; male, C57BL/6, mouse, read-out: AUC0-24 h ratio (total colon to plasma)): 4850
Kp ([7]; male, C57BL/6, mouse, read-out: Cmax ratio (total colon to plasma)): 3170
concentration at 0.5 h [7, 9]: 431 ng/g
concentration at 1 h [7, 9]: 1160 ng/g
concentration at 2 h [7, 9]: 5450 ng/g
concentration at 4 h [7, 9]: 7230 ng/g
concentration at 6 h [7, 9]: 4820 ng/g
concentration at 8 h [7, 9]: 15200 ng/g
concentration at 12 h [7, 9]: 2220 ng/g
concentration at 24 h [7, 9]: 44.8 ng/g
Cmax ([7]; male, C57BL/6, mouse, total colon tissue, oral 10 mg/kg, total colon, read-out: Cmax C (total colon)): 15200 ng/g
Systemic plasma exposure following oral administration ([7]; oral 10 mg/kg, plasma, in words): very low
AUC0-24 h C (total colon) ([7]; oral 10 mg/kg, total colon): 97,062 h · ng/g
Colonic concentrations following oral administration ([7]; oral 10 mg/kg, total colon, in words): substantial colonic concentrations
